Experimental data reported in the supplement of paper PMC12350171.

Legend:
[1] = test system: Com21 synthetic gut community; experiment: community biomass OD578 after 24 h drug treatment relative to untreated (fraction of untreated control); higher = more community growth; conditions: community: Com21 (Com20 + E. coli ED1a)
Procedure: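 Com21 (Com20 plus E. coli ED1a) was treated with drug for 24 h under anaerobic conditions in mGAM. Community OD578 was then measured and normalised to untreated Com21; mean of 3 biological replicates.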

Parabacteroides merdae = experiment: IC25 growth inhibition; higher = less potent
Method in brief: (§1)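 Under anaerobic conditions, OD578 was read hourly in a plate reader for at least three biological replicates of monocultures grown overnight in mGAM. Each culture started at an OD578 of 0.01 in pre-reduced plates holding twofold drug dilutions and 1% DMSO (or water). IC25 was reported as a tested interval: the lowest concentration where the monotonic median area under the growth curve dropped below the cutoff. That cutoff was 0.75.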

[2] = test system: Fusobacterium nucleatum subsp. Nucleatum; experiment: IC25 growth inhibition; higher = less potent
Method in brief: as §1

Bacteroides fragilis NT = experiment: IC25 growth inhibition; higher = less potent
Method in brief: as §1

Escherichia coli ED1a = experiment: IC25 growth inhibition; higher = less potent
Method in brief: as §1

Collinsella aerofaciens = experiment: IC25 growth inhibition; higher = less potent
Method in brief: as §1

[3] = test system: Yersinia pseudotuberculosis; experiment: IC25 growth inhibition; higher = less potent
Method in brief: as §1

Shigella flexneri = experiment: IC25 growth inhibition; higher = less potent
Method in brief: as §1

[4] = test system: Clostridium saccharolyticum; experiment: IC25 growth inhibition; higher = less potent
Method in brief: as §1

Clostridium ramosum = experiment: IC25 growth inhibition; higher = less potent
Method in brief: as §1

[5] = test system: Salmonella enterica typhimurium; experiment: IC25 growth inhibition; higher = less potent
Method in brief: as §1

Ruminococcus gnavus = experiment: IC25 growth inhibition; higher = less potent
Method in brief: as §1

Dorea formicigenerans = experiment: IC25 growth inhibition; higher = less potent
Method in brief: as §1

Roseburia intestinalis = experiment: IC25 growth inhibition; higher = less potent
Method in brief: as §1

Bacteroides vulgatus = experiment: IC25 growth inhibition; higher = less potent
Method in brief: as §1

[6] = test system: Streptococcus parasanguinis; experiment: IC25 growth inhibition; higher = less potent
Method in brief: as §1

Streptococcus salivarius = experiment: IC25 growth inhibition; higher = less potent
Method in brief: as §1

[7] = test system: Yersinia enterocolitica WA-314; experiment: IC25 growth inhibition; higher = less potent
Method in brief: as §1

Coprococcus comes = experiment: IC25 growth inhibition; higher = less potent
Method in brief: as §1

[8] = test system: Bacteroides thetaiotaomicron; experiment: IC25 growth inhibition; higher = less potent
Method in brief: as §1

Vibrio cholerae = experiment: IC25 growth inhibition; higher = less potent
Method in brief: as §1

Bacteroides uniformis = experiment: IC25 growth inhibition; higher = less potent
Method in brief: as §1

Clostridium perfringens = experiment: IC25 growth inhibition; higher = less potent
Method in brief: as §1

Clostridium bolteae = experiment: IC25 growth inhibition; higher = less potent
Method in brief: as §1

Eubacterium rectale = experiment: IC25 growth inhibition; higher = less potent
Method in brief: as §1

[9] = drug pretreatment concentration 10 µM
[10] = drug pretreatment concentration 20 µM
[11] = drug pretreatment concentration 40 µM
[12] = drug pretreatment concentration 80 µM
[13] = drug pretreatment concentration 160 µM
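For IC25 growth inhibition in this document: lowest concentration where monotonic median growth AUC falls below 0.75 of drug-free control.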

Structure (SMILES) | community biomass OD578 [1, 9] | community biomass OD578 [1, 10] | community biomass OD578 [1, 11] | community biomass OD578 [1, 12] | community biomass OD578 [1, 13] | IC25 growth inhibition (Parabacteroides merdae) | IC25 growth inhibition [2] | IC25 growth inhibition (Bacteroides fragilis NT) | IC25 growth inhibition (Escherichia coli ED1a) | IC25 growth inhibition (Collinsella aerofaciens) | IC25 growth inhibition [3] | IC25 growth inhibition (Shigella flexneri) | IC25 growth inhibition [4] | IC25 growth inhibition (Clostridium ramosum) | IC25 growth inhibition [5] | IC25 growth inhibition (Ruminococcus gnavus) | IC25 growth inhibition (Dorea formicigenerans) | IC25 growth inhibition (Roseburia intestinalis) | IC25 growth inhibition (Bacteroides vulgatus) | IC25 growth inhibition [6] | IC25 growth inhibition (Streptococcus salivarius) | IC25 growth inhibition [7] | IC25 growth inhibition (Coprococcus comes) | IC25 growth inhibition [8] | IC25 growth inhibition (Vibrio cholerae) | IC25 growth inhibition (Bacteroides uniformis) | IC25 growth inhibition (Clostridium perfringens) | IC25 growth inhibition (Clostridium bolteae) | IC25 growth inhibition (Eubacterium rectale) | community biomass OD578 ([1]; drug pretreatment concentration 2.5 µM) | community biomass OD578 ([1]; drug pretreatment concentration 5 µM)
CC(C)(C)c1ccc(C(O)CCCN2CCC(C(O)(c3ccccc3)c3ccccc3)CC2)cc1 (centres undefined) [Terfenadine] | 0.953 | 0.96 | 0.863 | 0.542 | 0.35 | ≤ 80 µM | ≤ 80 µM | ≤ 80 µM | > 160 µM | ≤ 20 µM | > 80 µM | > 80 µM | ≤ 40 µM | > 80 µM | > 160 µM | ≤ 20 µM | ≤ 20 µM | ≤ 10 µM | ≤ 40 µM | ≤ 80 µM | ≤ 80 µM | > 40 µM | ≤ 80 µM | ≤ 80 µM | > 40 µM | ≤ 80 µM | ≤ 80 µM | ≤ 80 µM | ≤ 80 µM |  | 
Nc1nc(=S)c2ncn([C@@H]3O[C@H](CO)[C@@H](O)[C@H]3O)c2[nH]1 [Thioguanosine] | 1.02 | 1.05 | 1.01 |  |  | > 40 µM | > 40 µM | > 40 µM | ≤ 2.5 µM | > 40 µM | ≤ 20 µM | ≤ 2.5 µM | > 40 µM | > 40 µM | > 40 µM | > 40 µM | > 40 µM | > 40 µM | > 40 µM | > 40 µM | > 40 µM | > 40 µM | > 40 µM | > 40 µM | > 40 µM | > 40 µM | > 40 µM | > 40 µM | > 40 µM | 1.01 | 1.01
NC[C@H]1O[C@H](O[C@H]2[C@H](O)[C@@H](O[C@H]3O[C@H](CO)[C@@H](O)[C@H](N)[C@H]3O)[C@H](N)C[C@@H]2N)[C@H](N)C[C@@H]1O [Tobramycin] | 1.01 | 0.969 | 0.972 | 0.983 | 0.992 | > 160 µM | ≤ 80 µM | > 160 µM | ≤ 20 µM | ≤ 10 µM | ≤ 20 µM | ≤ 40 µM | ≤ 10 µM | ≤ 160 µM | ≤ 160 µM | ≤ 40 µM | > 160 µM | ≤ 10 µM | > 160 µM | ≤ 5 µM | ≤ 5 µM | ≤ 40 µM | ≤ 40 µM | > 160 µM | ≤ 160 µM | > 160 µM | ≤ 20 µM | > 160 µM | ≤ 20 µM |  | 
Cc1c(Cl)cccc1Nc1ccccc1C(=O)O [Tolfenamic acid] | 0.991 | 0.971 | 0.962 | 0.923 | 0.864 | ≤ 40 µM | ≤ 40 µM | ≤ 80 µM | > 160 µM | > 160 µM | > 160 µM | > 160 µM | ≤ 160 µM | ≤ 80 µM | > 160 µM | ≤ 80 µM | > 160 µM | > 160 µM | ≤ 80 µM | > 160 µM | ≤ 160 µM | > 160 µM | ≤ 80 µM | ≤ 160 µM | ≤ 80 µM | ≤ 160 µM | ≤ 160 µM | > 160 µM | > 160 µM |  | 
CCOC1O[C@H]([C@@H](COCc2ccccc2)OCc2ccccc2)[C@H](OCc2ccccc2)[C@H]1O (some centres undefined) [Tribenoside] | 0.995 | 0.955 | 0.976 | 0.945 | 0.947 | > 40 µM | > 40 µM | > 40 µM | > 20 µM | > 40 µM | > 40 µM | > 40 µM | > 80 µM | > 40 µM | > 40 µM | > 40 µM | > 20 µM | > 80 µM | > 40 µM | > 40 µM | > 80 µM | ≤ 160 µM | > 40 µM | > 40 µM | > 40 µM | > 40 µM | > 80 µM | > 80 µM | > 40 µM |  | 
COc1cc(C(=O)NS(=O)(=O)c2ccccc2C)ccc1Cc1cn(C)c2ccc(NC(=O)OC3CCCC3)cc12 [Zafirlukast] | 0.904 | 0.876 | 0.825 | 0.81 | 0.841 | ≤ 40 µM | > 80 µM | ≤ 80 µM | > 160 µM | ≤ 80 µM | > 80 µM | > 160 µM | ≤ 80 µM | ≤ 10 µM | > 80 µM | ≤ 20 µM | ≤ 40 µM | ≤ 20 µM | ≤ 40 µM | ≤ 20 µM | ≤ 10 µM | > 80 µM | ≤ 20 µM | ≤ 80 µM | > 80 µM | ≤ 80 µM | ≤ 10 µM | ≤ 80 µM | ≤ 80 µM |  | 
